The supplement of paper PMC10307832

How the values were obtained:
Experiment in all cases: relative viability (nuclei count vs DMSO), 5 days (fraction); higher = more cells survive
IPA-3 + Palbociclib = compound: C1=CC=C2C(=C1)C=CC(=C2SSC3=C(C=CC4=CC=CC=C43)O)O [IPA-3] + CC(=O)c1c(C)c2cnc(Nc3ccc(N4CCNCC4)cn3)nc2n(C2CCCC2)c1=O [Palbociclib] (partner 0.5 µM)
In short: (§1)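 Lung cancer cell lines, seeded in 1536-well plates, were treated the following day by pin tool with a single drug or with five library-drug doses (not always all listed) in √10 steps on top of a fixed anchor-drug dose. Cells were fixed and nuclei stained in one step after 5 days, and nuclei were counted. Relative viability is the nuclei count for treated wells divided by that for vehicle wells, reported as medians of duplicate plates.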

Doramapimod + Trametinib = compound: Cc1ccc(-n2nc(C(C)(C)C)cc2NC(=O)Nc2ccc(OCCN3CCOCC3)c3ccccc23)cc1 [Doramapimod] + CC(=O)Nc1cccc(-n2c(=O)n(C3CC3)c(=O)c3c(Nc4ccc(I)cc4F)n(C)c(=O)c(C)c32)c1 [Trametinib] (partner 0.02 µM)
In short: as §1

RAF265 + Luminespib = compound: Cn1c(Nc2ccc(C(F)(F)F)cc2)nc2cc(Oc3ccnc(-c4ncc(C(F)(F)F)[nH]4)c3)ccc21 [RAF265] + CCNC(=O)c1noc(-c2cc(C(C)C)c(O)cc2O)c1-c1ccc(CN2CCOCC2)cc1 [Luminespib] (partner 0.01 µM)
In short: as §1

Doramapimod + Alpelisib = compound: Cc1ccc(-n2nc(C(C)(C)C)cc2NC(=O)Nc2ccc(OCCN3CCOCC3)c3ccccc23)cc1 [Doramapimod] + Cc1nc(NC(=O)N2CCC[C@H]2C(N)=O)sc1-c1ccnc(C(C)(C)C(F)(F)F)c1 [Alpelisib] (partner 2 µM)
In short: as §1

| Cell Line | relative viability (IPA-3 + Palbociclib; first compound 0.2 µM) | relative viability (IPA-3 + Palbociclib; first compound 0.6325 µM) | relative viability (IPA-3 + Palbociclib; first compound 2 µM) | relative viability (IPA-3 + Palbociclib; first compound 6.325 µM) | relative viability (IPA-3 + Palbociclib; first compound 20 µM) | relative viability (Doramapimod + Trametinib; first compound 0.02 µM) | relative viability (Doramapimod + Trametinib; first compound 0.06325 µM) | relative viability (Doramapimod + Trametinib; first compound 0.2 µM) | relative viability (Doramapimod + Trametinib; first compound 0.6325 µM) | relative viability (Doramapimod + Trametinib; first compound 2 µM) | relative viability (RAF265 + Luminespib; first compound 0.01 µM) | relative viability (RAF265 + Luminespib; first compound 0.03162 µM) | relative viability (RAF265 + Luminespib; first compound 0.1 µM) | relative viability (RAF265 + Luminespib; first compound 0.3162 µM) | relative viability (RAF265 + Luminespib; first compound 1 µM) | relative viability (Doramapimod + Alpelisib; first compound 0.02 µM) | relative viability (Doramapimod + Alpelisib; first compound 0.06325 µM) | relative viability (Doramapimod + Alpelisib; first compound 0.2 µM) | relative viability (Doramapimod + Alpelisib; first compound 0.6325 µM) | relative viability (Doramapimod + Alpelisib; first compound 2 µM) |
| --- | --- | --- | --- | --- | --- | --- | --- | --- | --- | --- | --- | --- | --- | --- | --- | --- | --- | --- | --- | --- |
| SW 900 | 0.536 | 0.518 | 0.545 | 0.49 | 0.587 | 0.761 | 0.875 | 0.974 | 0.749 | 0.769 | 0.204 | 0.182 | 0.169 | 0.154 | 0.145 |  |  |  |  |  |
| NCI-H1623 |  |  |  |  |  |  |  |  |  |  | 0.608 | 0.48 | 0.63 |  | 0.33 |  |  |  |  |  |
| NCI-H3122 | 0.185 | 0.174 | 0.176 | 0.219 | 0.203 | 0.26 | 0.206 | 0.216 | 0.219 | 0.279 | 0.0828 | 0.0692 | 0.0932 | 0.0953 | 0.0538 | 0.952 | 0.831 | 0.756 | 0.776 | 0.863 |
| NCI-H2347 | 0.409 | 0.45 | 0.429 | 0.414 | 0.448 | 0.281 | 0.23 | 0.249 | 0.26 | 0.261 | 0.445 | 0.775 | 0.849 | 0.337 | 0.234 | 1.09 | 0.926 | 1.06 | 1.05 | 0.957 |
| HCC-44 | 0.966 | 1.02 | 0.979 | 0.948 | 0.934 | 1.08 | 1.2 | 1.11 | 1.18 | 1.06 | 1.17 | 0.986 | 1.06 | 1.05 | 1.05 | 0.811 | 0.764 | 0.756 | 0.76 | 0.701 |
| HCC-78 | 0.53 | 0.435 | 0.485 | 0.486 | 0.484 | 0.802 | 0.724 | 0.767 | 0.763 | 0.819 |  |  |  |  |  | 0.288 | 0.327 | 0.325 | 0.343 | 0.285 |
| COR-L23 | 0.283 | 0.301 | 0.316 | 0.266 | 0.118 | 0.675 | 0.651 | 0.588 | 0.607 | 0.616 | 0.637 | 0.655 | 0.539 | 0.33 | 0.324 | 0.762 | 0.719 | 0.755 | 0.734 | 0.697 |
| NCI-H1993 | 0.702 | 0.732 | 0.656 | 0.516 | 0.545 | 0.458 | 0.504 | 0.622 | 0.45 | 0.434 | 0.852 | 0.75 | 0.9 | 1.42 | 0.774 | 0.765 | 0.617 | 0.707 | 0.626 | 0.664 |
| NCI-H2405 | 0.561 | 0.49 | 0.519 | 0.529 | 0.544 | 0.613 | 0.618 | 0.612 | 0.705 | 0.581 | 0.638 | 0.812 | 0.722 | 0.476 | 0.548 | 0.82 | 0.718 | 0.715 | 1.18 | 0.678 |
| NCI-H2126 | 0.33 | 0.369 | 0.335 | 0.343 | 0.375 | 0.551 | 0.546 | 0.571 | 0.637 | 0.524 | 0.918 | 0.87 | 0.908 | 0.628 | 0.654 | 0.743 | 0.733 | 0.733 | 0.742 | 0.662 |
| NCI-H1944 | 0.333 | 0.326 | 0.389 | 0.384 | 0.334 | 0.387 | 0.343 | 0.43 | 0.419 | 0.396 | 0.858 | 0.71 | 0.726 | 0.529 | 0.332 | 0.756 | 0.829 | 0.765 | 0.829 | 0.71 |
| NCI-H1648 | 0.222 | 0.223 | 0.248 | 0.263 | 0.229 | 0.435 | 0.46 | 0.508 | 0.582 | 0.402 |  |  |  |  |  |  |  |  |  |  |
| ABC-1 | 0.733 | 0.81 | 0.392 | 0.748 | 0.851 |  |  |  |  |  | 0.656 | 0.823 | 0.75 | 0.519 | 0.265 | 1.09 | 0.839 | 1.14 | 1.08 | 0.954 |
| NCI-H596 |  |  |  |  |  | 0.802 | 0.845 | 0.915 | 0.852 | 0.806 | 1.11 | 1.06 | 0.962 | 1.01 | 0.625 | 0.486 | 0.502 | 0.469 | 0.529 | 0.431 |
| NCI-H1563 |  |  |  |  |  |  |  |  |  |  | 0.56 | 0.511 | 0.589 | 0.529 | 0.485 | 0.859 | 0.912 | 0.893 | 1 | 0.802 |
| HCC-366 | 0.479 | 0.382 | 0.374 | 0.378 | 0.474 | 0.309 | 0.248 | 0.259 | 0.263 | 0.212 |  |  |  |  |  | 0.403 | 0.325 | 0.38 | 0.39 | 0.299 |
| NCI-H2342 | 0.6 | 0.479 | 0.553 | 0.57 | 0.575 | 0.838 | 0.844 | 0.754 | 0.817 | 0.847 | 0.713 | 0.68 | 0.685 | 0.577 | 0.519 |  |  |  |  |  |
| NCI-H522 | 1.16 | 1.14 | 0.893 | 1.18 | 1.31 | 0.717 | 0.703 | 0.799 | 0.727 | 0.633 | 0.984 | 1.26 | 1.27 |  | 0.957 |  |  |  |  |  |
| EBC-1 |  |  |  |  |  |  |  |  |  |  |  |  |  |  |  | 0.804 | 0.792 | 0.785 | 0.933 | 0.675 |
| NCI-H1650 | 0.472 | 0.314 | 0.328 | 0.311 | 0.327 | 0.612 | 0.665 | 0.734 | 0.763 | 0.496 | 0.176 | 0.208 | 0.192 | 0.205 | 0.216 |  |  |  |  |  |
| IA-LM |  |  |  |  |  |  |  |  |  |  |  |  |  |  |  | 0.658 | 0.728 | 0.693 | 0.73 | 0.669 |
| NCI-H1703 |  |  |  |  |  |  |  |  |  |  |  |  |  |  |  | 0.363 | 0.336 | 0.323 | 0.393 | 0.278 |
